Where a SMILES comes first, the peptide text is derived from it.
What was measured:
[1] = tested on: B16; experiment: Cytotoxicity against mouse B16 cells up to 150 uM by MTT assay relative to control; assay type: cell-based
[2] = Antioxidant activity assessed as ABTS radical scavenging activity at 80 uM after 10 mins relative to control; assay type: functional
[3] = target: T1, Tyrosinase (Agaricus bisporus, UniProt O42713); experiment: Inhibition of mushroom tyrosinase using L-dopa as substrate assessed as reduction in dopachrome production after 20 mins by spectrophotometry
T1 sequence (O42713 whole entry): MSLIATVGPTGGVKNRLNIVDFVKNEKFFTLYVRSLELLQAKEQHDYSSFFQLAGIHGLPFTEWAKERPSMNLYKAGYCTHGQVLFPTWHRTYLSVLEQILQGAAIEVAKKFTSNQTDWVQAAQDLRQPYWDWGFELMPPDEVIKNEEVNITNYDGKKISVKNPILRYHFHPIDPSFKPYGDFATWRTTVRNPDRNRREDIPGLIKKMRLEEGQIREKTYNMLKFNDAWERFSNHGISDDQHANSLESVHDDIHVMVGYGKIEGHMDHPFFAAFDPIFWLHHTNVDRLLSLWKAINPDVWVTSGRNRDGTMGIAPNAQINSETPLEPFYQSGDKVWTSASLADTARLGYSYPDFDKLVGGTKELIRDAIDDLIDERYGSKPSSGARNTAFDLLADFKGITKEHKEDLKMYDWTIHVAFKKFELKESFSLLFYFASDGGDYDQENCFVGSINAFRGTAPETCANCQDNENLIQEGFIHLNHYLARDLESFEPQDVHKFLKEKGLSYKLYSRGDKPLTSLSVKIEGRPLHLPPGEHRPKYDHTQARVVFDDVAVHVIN

[4] = Hemolytic activity against human erythrocytes assessed as amount of hemoglobin released from lysed cells up to 150 uM relative to control; assay type: ADME, cell-based, Erythrocyte; settings: read-out: Activity
[5] = Reducing power of the compound assessed as reducing Fe3+ power at 80 uM using K3Fe(CN)6 in pH 6.6 phosphate buffer relative to control
[6] = tested on: HaCaT; experiment: Cytotoxicity against human HaCaT cells up to 150 uM by MTT assay relative to control; assay type: cell-based
[7] = Antioxidant activity assessed as DPPH free radical scavenging activity at 80 uM after 30 mins relative to control; assay type: functional

Row | Compound | IC50 [3] [µM] | Activity [1] [%] | Activity [2] [%] | hemolysis [4] [%] | Activity [5] | Activity [6] [%] | Activity [7] [%]
1 | CC[C@H](C)[C@H](NC(=O)[C@H](CS)NC(=O)[C@@H](NC(=O)[C@@H](NC(=O)[C@H](CCCNC(=N)N)NC(=O)[C@H](C)NC(=O)[C@@H](NC(=O)[C@H](CC(N)=O)NC(=O)[C@@H](NC(=O)[C@H](CCCNC(=N)N)NC(=O)[C@H](Cc1ccccc1)NC(=O)[C@H](CCCNC(=N)N)NC(=O)[C@@H](NC(=O)[C@@H](N)CS)C(C)C)[C@@H](C)O)[C@@H](C)O)[C@@H](C)O)C(C)C)C(=O)N[C@@H](C)C(=O)N1CCC[C@H]1C(=O)O (H-CVRFRTNTARTVCIAP-OH) | 166 | 13 | 36 | 5 | 0.18 | 15 | 43
2 | CC[C@H](C)[C@H](NC(=O)[C@H](CS)NC(=O)[C@H](CCCNC(=N)N)NC(=O)[C@H](CO)NC(=O)[C@@H](N)[C@@H](C)O)C(=O)N[C@@H](Cc1ccccc1)C(=O)N[C@@H](Cc1ccc(O)cc1)C(=O)N[C@@H](CCCNC(=N)N)C(=O)N[C@@H](CCCNC(=N)N)C(=O)N[C@@H](CCCCN)C(=O)N[C@@H](CCCCN)C(=O)N[C@@H](CS)C(=O)N[C@@H](CO)C(=O)O (H-TSRCIFYRRKKCS-OH) | 153 |  | 85 |  | 0.21 |  | 55
3 | CC(C)[C@H](N)C(=O)N[C@H](C(=O)N[C@@H](CCCCN)C(=O)N[C@@H](CS)C(=O)N[C@@H](CO)C(=O)N[C@@H](Cc1ccccc1)C(=O)N[C@@H](CCCNC(=N)N)C(=O)N1CCC[C@H]1C(=O)NCC(=O)N[C@@H](CO)C(=O)N1CCC[C@H]1C(=O)N[C@@H](C)C(=O)N1CCC[C@H]1C(=O)N[C@@H](CCCNC(=N)N)C(=O)N[C@@H](CS)C(=O)N[C@@H](CCCCN)C(=O)O)C(C)C (H-VVKCSFRPGSPAPRCK-OH) | 199 | 13 | 25 | 5 | 0.18 | 10 | 56
4 | CC[C@H](C)[C@H](NC(=O)[C@H](C)NC(=O)[C@@H]1CCCN1C(=O)[C@@H](NC(=O)[C@@H](N)Cc1ccccc1)C(C)C)C(=O)N[C@@H](CC(C)C)C(=O)N[C@@H](CS)C(=O)N[C@@H](CO)C(=O)N[C@H](C(=O)N[C@@H](CC(C)C)C(=O)N[C@@H](CCCCN)C(=O)N[C@H](C(=O)N[C@@H](CS)C(=O)O)[C@@H](C)O)[C@@H](C)CC (H-FVPAILCSILKTC-OH) | 147 | 12 | 48 | 4 | 0.23 | 11 | 74
5 | C[C@@H](O)[C@H](NC(=O)[C@H](CO)NC(=O)[C@H](Cc1ccccc1)NC(=O)[C@@H](N)Cc1ccccc1)C(=O)N[C@@H](CO)C(=O)N[C@@H](CS)C(=O)N[C@@H](CCCNC(=N)N)C(=O)N[C@@H](CO)C(=O)NCC(=O)N[C@@H](CS)C(=O)O (H-FFSTSCRSGC-OH) | 187 |  | 80 |  | 0.21 |  | 45
6 | CC[C@H](C)[C@H](NC(=O)[C@H](CS)NC(=O)[C@H](C)NC(=O)[C@@H](NC(=O)[C@H](CCCNC(=N)N)NC(=O)[C@H](C)NC(=O)[C@@H](NC(=O)[C@H](CC(N)=O)NC(=O)[C@@H](NC(=O)[C@H](CCSC)NC(=O)[C@H](Cc1c[nH]c2ccccc12)NC(=O)[C@H](Cc1cnc[nH]1)NC(=O)[C@@H](NC(=O)[C@@H](N)CS)C(C)C)[C@@H](C)O)[C@@H](C)O)[C@@H](C)O)C(=O)N[C@@H](C)C(=O)N1CCC[C@H]1C(=O)O (H-CVHWMTNTARTACIAP-OH) | 176 |  | 82 |  | 0.34 |  | 21
7 | H-TRAFRCVS-OH | 220 | 10 | 56 | 1 | 0.25 | 11 | 80

The next compounds have a lower IC50 [3] than those just listed; values first:

Row | IC50 [3] [µM] | Compound | Activity [1] [%] | Activity [2] [%] | hemolysis [4] [%] | Activity [5] | Activity [6] [%] | Activity [7] [%]
8 | 90 | CC(C)[C@H](NC(=O)[C@H](CCCNC(=N)N)NC(=O)[C@H](CS)NC(=O)[C@H](CO)NC(=O)[C@H](CCCNC(=N)N)NC(=O)[C@H](Cc1ccccc1)NC(=O)[C@@H](N)Cc1ccccc1)C(=O)N[C@@H](CS)C(=O)O (H-FFRSCRVC-OH) | 5 | 66 | 2 | 0.19 | 5 | 95
9 | 106 | CC(C)[C@H](NC(=O)[C@H](CCCNC(=N)N)NC(=O)[C@H](Cc1ccccc1)NC(=O)[C@H](CS)NC(=O)[C@H](CCCNC(=N)N)NC(=O)[C@H](CO)NC(=O)[C@@H](N)[C@@H](C)O)C(=O)N[C@@H](CS)C(=O)O (H-TSRCFRVC-OH) | 11 | 50 | 1 | 0.24 | 9 | 99
10 | 127 | CC(C)[C@H](NC(=O)[C@H](CO)NC(=O)[C@H](CCCNC(=N)N)NC(=O)[C@H](CS)NC(=O)[C@H](CO)NC(=O)[C@@H](NC(=O)[C@H](CCCNC(=N)N)NC(=O)[C@H](Cc1ccccc1)NC(=O)[C@@H](N)Cc1ccccc1)[C@@H](C)O)C(=O)N[C@@H](CS)C(=O)O (H-FFRTSCRSVC-OH) | 9 | 58 | 7 | 0.28 | 13 | 90
11 | 128 | CC[C@H](C)[C@H](NC(=O)[C@H](CS)NC(=O)[C@H](CCCNC(=N)N)NC(=O)[C@H](CO)NC(=O)[C@@H](N)[C@@H](C)O)C(=O)N[C@@H](Cc1ccccc1)C(=O)N[C@@H](Cc1ccc(O)cc1)C(=O)N[C@@H](CCCNC(=N)N)C(=O)N[C@@H](CCCNC(=N)N)C(=O)N[C@@H](CS)C(=O)N[C@H](C(=O)N[C@@H](CS)C(=O)N[C@@H](CO)C(=O)O)C(C)C (H-TSRCIFYRRCVCS-OH) | 27 | 61 | 21 | 0.24 | 29 | 60
12 | 78 | C[C@H](NC(=O)[C@H](CO)NC(=O)[C@H](CS)NC(=O)[C@H](CO)NC(=O)[C@@H](NC(=O)[C@H](CCCNC(=N)N)NC(=O)[C@@H](N)Cc1ccccc1)[C@@H](C)O)C(=O)N[C@@H](CS)C(=O)O (H-FRTSCSAC-OH) | 8 | 62 | 2 | 0.23 | 7 | 73

Reference: ChEMBL document CHEMBL4325834, “De Novo Molecular Design of a Novel Octapeptide That Inhibits In Vivo Melanogenesis and Has Great Transdermal Ability” (J Med Chem, 2018)
